The record followed here is patent US20260364184A1, “COMPOUND BASED ON OXOISOINDOLINYL-SUBSTITUTED TETRAHYDROPYRIMIDINE-DIONE AND USE THEREOF” (GLUETACS THERAPEUTICS (SHANGHAI) CO., LTD., priority 2023, published 2026).

Common to all, as to type: cell-based
Experiment [1] concerns the target T1, EZH2 (Homo sapiens, UniProt Q15910+Q96SW2).
T1 construct: expression of target proteins in cells; endogenous in cells
In words: Western blot degradation of EZH2. The settings on record: hPBMC Cell; 24 hours. The protocol: (§1) Conventional Western blot assay was performed to evaluate the effects of the compounds of the present disclosure on the expression of target proteins in cells.
(§2) (1) Cell Seeding and Protein Harvesting: The selected cells were processed according to the cell seeding procedure and protein harvesting procedure in Table II-2.
(§3) (2) To the collected supernatant, 5×SDS sample loading buffer was added, followed by denaturation at 95 °C for 5 minutes. The denatured samples were then separated by SDS-PAGE electrophoresis on a polyacrylamide gel. Proteins were transferred to a nitrocellulose membrane (0.45 μm NC membrane), blocked with blocking buffer at room temperature for 1 hour, and subjected to antibody incubation and development procedures according to the antibody manufacturer's instructions (Cell Signaling Technology).
(§4) Half-Maximal Degradation Concentration value (the drug concentration required for degrading proteins by 50%, abbreviated as DC50) reads method: comparing the grayscale values of Western blot bands from drug-treated samples with those from blank DMSO-treated controls, and identifying the drug concentration range at which the grayscale value is half that of the DMSO-treated control bands.
(§5) DC50 values can be calculated using ImageJ software to measure grayscale values of Western blot bands from drug-treated samples. The concentration-response curve is fitted to estimate the drug concentration corresponding to half the grayscale value.
(§6) Target protein remaining (%) refers to the percentage of target protein remaining in cells after treatment with protein degrader compounds.
(§7) Calculation method for target protein remaining (%): Use ImageJ software to measure grayscale values of Western blot bands from drug (protein degrader)-treated samples. The grayscale value of drug-treated bands is divided by that of internal control protein bands, and the resulting quotient is normalized to obtain the relative percentage of remaining target protein after protein degrader treatment.
(§8) Target protein degradation rate (%)=1−target protein remaining (%).
(A western blot detects proteins with antibodies after separation by electrophoresis.)

The subject of experiment [2] is Human neuroblastoma cell line (SK-N-AS). In words: Inhibition of SK-N-AS cell proliferation (CellTiter luminescent viability). The settings on record: Table II2, EZH2 inhibitor-based, 96 hours.
Experiment [3] concerns Human breast cancer cell line (MDA-MB-231). In words: Inhibition of MDA-MB-231 cell proliferation (CellTiter luminescent viability). The settings on record: Table IG3, FAK inhibitor-based, 96 hours; for inhibition at 0.01 µM: MDA-MB-231, 10 nM, read-out: Inhibition Rate at 10 nM (%); for inhibition at 0.5 µM: MDA-MB-231, 500 nM, read-out: Inhibition Rate at 500 nM (%). The method, then: The tumor cells used herein were cultured in a cell culture medium listed in table 3 at 37 °C in an incubator with 5% CO2. Prior to experimentation, all cell lines used were correctly identified by STR profiling, and tested negative for mycoplasma contamination using a mycoplasma detection kit through routine screenings.
The IC50 values of the compounds of the present disclosure (including the compounds in Table 1, Table 2, and Examples 1-468) were determined using the CellTiter-Meiluncell Luminescent Cell Viability Assay Kit from Dalian Meilun Biotech Co., Ltd. The detailed procedure is as follows: Tumor cells were seeded in 96-well cell culture plates at the densities specified in Table 4. On the following day, the test compounds of the present disclosure were subjected to serial dilution. The dilution can be performed according to one of the following two methods: • (1) The first dilution method: The test compounds of the present disclosure (including the compounds in Table 1, Table 2, and Examples 1-468) were subjected to 5-fold serial dilutions starting from a highest concentration of 2000 μM, resulting in a total of 9 concentrations from high to low (2000, 400, 80, 16, 3.2, 0.64, 0.128, 0.0256, 0.00512 μM). Subsequently, 0.5 μL of the test compound dilution was transferred into the 96-well plate containing the cells, with each well containing 100 μL of cell culture medium. […] Into the 96-well plate, the diluted test compounds and corresponding detection reagents were added, resulting in final test compound concentrations of 500 nM and 10 nM, respectively. The experimental procedure is described below using the diluted 2 μM test compound as an example.
0.5 μL of the aforementioned diluted compound of the present disclosure (including the compounds in Table 1, Table 2, and Examples 1-468) was added to the seeded cells in 100 μL of medium, yielding a final test compound concentration of 10 nM. After the cells were treated with the compounds of the present disclosure for a specified period, the cell viability assay reagent was added to the culture medium according to the kit's instructions to determine cell viability. […] All controls were treated using the same procedure as the compounds of the present disclosure. The growth inhibition curves for the compounds of the present disclosure were plotted using Prism GraphPad software, and the IC50 values were calculated therefrom.

The target of experiment [4] is T2, FAK (Homo sapiens, UniProt Q05397).
T2 construct: expression of target proteins in cells; endogenous in cells
In words: Western blot degradation of FAK. The settings on record: A549 Cell; 24 hours. The method, then:
as §1, §2, §3, §4, §5, §6, §7, §8

Experiment [5] deals with Human myeloid monocytic leukemia cell line (MV-4-11). Description: Inhibition of MV-4-11 cell proliferation (CellTiter luminescent viability). The settings on record: Homo sapiens, MV4-11, Table IG2, FAK inhibitor-based, 96 hours; for inhibition at 0.01 µM: MV-4-11, 10 nM, read-out: Inhibition Rate at 10 nM (%); for inhibition at 0.5 µM: MV-4-11, 500 nM, read-out: Inhibition Rate at 500 nM (%). Summed up: (§9)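 Cells are seeded in 96-well plates, cultured at 37 °C, 5% CO2, and treated next day with 5-fold serial compound dilutions (stock series from 2000 μM; 0.5 μL into 100 μL medium). Viability is read by CellTiter-Meiluncell luminescence after the set exposure, and IC50 is taken from growth-inhibition curves.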

In experiment [6] the test system is Human Multiple myeloma cell line (MM.1S). Description: Inhibition of MM.1S cell proliferation (CellTiter luminescent viability). The settings on record: Homo sapiens, MM1.S, Table IG1, FAK inhibitor-based, 96 hours; for inhibition at 0.01 µM: 10 nM, read-out: Inhibition Rate at 10 nM (%); for inhibition at 0.5 µM: 500 nM, read-out: Inhibition Rate at 500 nM (%). In short, it runs like this: as §9

SMILES strings stand for the structures.

T2 sequence (Q05397 whole entry): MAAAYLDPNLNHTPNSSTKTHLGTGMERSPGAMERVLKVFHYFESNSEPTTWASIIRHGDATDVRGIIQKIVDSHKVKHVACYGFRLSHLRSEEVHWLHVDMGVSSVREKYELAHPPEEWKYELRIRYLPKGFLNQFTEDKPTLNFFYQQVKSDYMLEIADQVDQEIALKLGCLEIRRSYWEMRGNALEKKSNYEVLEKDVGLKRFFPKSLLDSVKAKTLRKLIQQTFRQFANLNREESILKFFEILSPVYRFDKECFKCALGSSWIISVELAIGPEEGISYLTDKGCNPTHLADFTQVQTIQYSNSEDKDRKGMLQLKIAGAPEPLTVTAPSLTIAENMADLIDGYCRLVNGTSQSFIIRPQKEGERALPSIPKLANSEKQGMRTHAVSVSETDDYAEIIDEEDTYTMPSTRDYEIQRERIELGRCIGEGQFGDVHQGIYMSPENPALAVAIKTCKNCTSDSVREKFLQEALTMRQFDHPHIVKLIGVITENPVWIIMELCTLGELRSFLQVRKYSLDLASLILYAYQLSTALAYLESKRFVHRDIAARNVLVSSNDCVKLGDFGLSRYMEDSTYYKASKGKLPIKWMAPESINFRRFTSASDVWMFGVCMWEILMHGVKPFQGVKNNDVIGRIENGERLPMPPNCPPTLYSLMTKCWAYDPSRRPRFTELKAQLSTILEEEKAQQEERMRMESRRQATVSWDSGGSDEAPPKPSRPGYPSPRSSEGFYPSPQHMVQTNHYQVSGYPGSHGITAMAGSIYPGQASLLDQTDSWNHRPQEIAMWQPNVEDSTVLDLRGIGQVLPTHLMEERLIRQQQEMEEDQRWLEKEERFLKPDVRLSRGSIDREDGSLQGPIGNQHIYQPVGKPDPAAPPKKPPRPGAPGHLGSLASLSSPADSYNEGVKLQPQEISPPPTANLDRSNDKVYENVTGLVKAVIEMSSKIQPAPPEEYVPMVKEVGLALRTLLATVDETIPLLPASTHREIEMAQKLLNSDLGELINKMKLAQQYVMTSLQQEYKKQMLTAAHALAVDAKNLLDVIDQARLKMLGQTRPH
T1 sequence (Q15910 whole entry): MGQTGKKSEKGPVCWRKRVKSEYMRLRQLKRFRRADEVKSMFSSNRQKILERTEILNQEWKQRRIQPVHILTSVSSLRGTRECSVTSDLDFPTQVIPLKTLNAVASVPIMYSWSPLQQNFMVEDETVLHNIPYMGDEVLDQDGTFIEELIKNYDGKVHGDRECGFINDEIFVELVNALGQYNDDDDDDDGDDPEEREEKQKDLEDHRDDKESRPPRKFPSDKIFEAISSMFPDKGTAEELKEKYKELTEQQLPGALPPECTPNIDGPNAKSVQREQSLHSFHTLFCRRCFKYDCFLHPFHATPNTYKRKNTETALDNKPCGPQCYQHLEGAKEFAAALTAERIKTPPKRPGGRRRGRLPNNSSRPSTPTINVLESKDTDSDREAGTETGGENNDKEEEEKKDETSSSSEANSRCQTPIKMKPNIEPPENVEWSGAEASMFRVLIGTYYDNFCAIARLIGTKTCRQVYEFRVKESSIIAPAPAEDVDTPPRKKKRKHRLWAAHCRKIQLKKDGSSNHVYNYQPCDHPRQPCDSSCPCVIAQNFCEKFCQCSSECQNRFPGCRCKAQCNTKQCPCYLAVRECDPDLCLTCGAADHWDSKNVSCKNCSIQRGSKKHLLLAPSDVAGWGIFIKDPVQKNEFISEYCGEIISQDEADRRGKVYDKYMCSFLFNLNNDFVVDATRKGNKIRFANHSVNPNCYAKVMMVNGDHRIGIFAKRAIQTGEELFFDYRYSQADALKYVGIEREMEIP
T1 sequence (O75530 whole entry partner): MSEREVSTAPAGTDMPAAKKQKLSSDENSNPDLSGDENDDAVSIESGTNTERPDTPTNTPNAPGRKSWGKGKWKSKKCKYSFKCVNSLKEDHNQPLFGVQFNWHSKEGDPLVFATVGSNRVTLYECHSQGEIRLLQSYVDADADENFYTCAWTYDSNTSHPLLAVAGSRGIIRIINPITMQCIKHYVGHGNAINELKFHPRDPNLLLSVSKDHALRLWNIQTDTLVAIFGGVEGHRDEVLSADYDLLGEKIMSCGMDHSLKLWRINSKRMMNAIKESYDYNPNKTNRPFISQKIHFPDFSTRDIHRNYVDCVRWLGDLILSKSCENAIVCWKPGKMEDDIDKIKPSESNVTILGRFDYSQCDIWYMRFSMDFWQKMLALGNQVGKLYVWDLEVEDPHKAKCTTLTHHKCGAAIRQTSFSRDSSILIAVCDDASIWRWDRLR
T1 sequence (Q15022 whole entry partner): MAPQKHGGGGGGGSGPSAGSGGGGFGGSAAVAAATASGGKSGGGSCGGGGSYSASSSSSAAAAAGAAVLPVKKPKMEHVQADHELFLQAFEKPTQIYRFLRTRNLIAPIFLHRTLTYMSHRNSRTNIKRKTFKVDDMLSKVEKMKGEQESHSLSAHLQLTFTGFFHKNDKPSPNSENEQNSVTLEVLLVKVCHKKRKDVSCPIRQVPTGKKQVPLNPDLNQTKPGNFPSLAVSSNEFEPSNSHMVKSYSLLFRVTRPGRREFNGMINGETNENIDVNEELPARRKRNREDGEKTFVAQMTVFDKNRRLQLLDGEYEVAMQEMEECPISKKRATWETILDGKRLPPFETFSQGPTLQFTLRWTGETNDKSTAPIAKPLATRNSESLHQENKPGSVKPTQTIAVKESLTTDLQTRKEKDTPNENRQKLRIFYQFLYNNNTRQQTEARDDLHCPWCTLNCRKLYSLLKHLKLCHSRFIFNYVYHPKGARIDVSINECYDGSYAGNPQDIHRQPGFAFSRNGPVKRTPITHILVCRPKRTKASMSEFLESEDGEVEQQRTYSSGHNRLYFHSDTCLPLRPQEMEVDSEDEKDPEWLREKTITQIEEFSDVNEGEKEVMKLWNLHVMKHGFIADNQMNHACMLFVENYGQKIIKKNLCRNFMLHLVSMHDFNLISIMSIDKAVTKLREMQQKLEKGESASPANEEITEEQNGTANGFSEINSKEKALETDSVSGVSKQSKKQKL
T1 sequence (Q96SW2 whole entry): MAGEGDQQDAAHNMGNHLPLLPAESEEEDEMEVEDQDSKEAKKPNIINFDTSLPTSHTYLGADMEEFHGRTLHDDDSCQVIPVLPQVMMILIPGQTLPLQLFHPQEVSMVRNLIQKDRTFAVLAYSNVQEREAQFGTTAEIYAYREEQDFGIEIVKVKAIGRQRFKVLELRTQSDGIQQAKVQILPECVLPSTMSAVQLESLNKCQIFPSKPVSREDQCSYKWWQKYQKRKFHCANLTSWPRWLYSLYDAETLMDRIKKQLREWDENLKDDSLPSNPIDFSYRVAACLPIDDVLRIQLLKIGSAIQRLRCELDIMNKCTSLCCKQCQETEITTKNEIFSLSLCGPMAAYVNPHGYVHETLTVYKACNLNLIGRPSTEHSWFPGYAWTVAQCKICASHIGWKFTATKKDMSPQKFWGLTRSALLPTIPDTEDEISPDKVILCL
T1 sequence (Q16531 whole entry partner): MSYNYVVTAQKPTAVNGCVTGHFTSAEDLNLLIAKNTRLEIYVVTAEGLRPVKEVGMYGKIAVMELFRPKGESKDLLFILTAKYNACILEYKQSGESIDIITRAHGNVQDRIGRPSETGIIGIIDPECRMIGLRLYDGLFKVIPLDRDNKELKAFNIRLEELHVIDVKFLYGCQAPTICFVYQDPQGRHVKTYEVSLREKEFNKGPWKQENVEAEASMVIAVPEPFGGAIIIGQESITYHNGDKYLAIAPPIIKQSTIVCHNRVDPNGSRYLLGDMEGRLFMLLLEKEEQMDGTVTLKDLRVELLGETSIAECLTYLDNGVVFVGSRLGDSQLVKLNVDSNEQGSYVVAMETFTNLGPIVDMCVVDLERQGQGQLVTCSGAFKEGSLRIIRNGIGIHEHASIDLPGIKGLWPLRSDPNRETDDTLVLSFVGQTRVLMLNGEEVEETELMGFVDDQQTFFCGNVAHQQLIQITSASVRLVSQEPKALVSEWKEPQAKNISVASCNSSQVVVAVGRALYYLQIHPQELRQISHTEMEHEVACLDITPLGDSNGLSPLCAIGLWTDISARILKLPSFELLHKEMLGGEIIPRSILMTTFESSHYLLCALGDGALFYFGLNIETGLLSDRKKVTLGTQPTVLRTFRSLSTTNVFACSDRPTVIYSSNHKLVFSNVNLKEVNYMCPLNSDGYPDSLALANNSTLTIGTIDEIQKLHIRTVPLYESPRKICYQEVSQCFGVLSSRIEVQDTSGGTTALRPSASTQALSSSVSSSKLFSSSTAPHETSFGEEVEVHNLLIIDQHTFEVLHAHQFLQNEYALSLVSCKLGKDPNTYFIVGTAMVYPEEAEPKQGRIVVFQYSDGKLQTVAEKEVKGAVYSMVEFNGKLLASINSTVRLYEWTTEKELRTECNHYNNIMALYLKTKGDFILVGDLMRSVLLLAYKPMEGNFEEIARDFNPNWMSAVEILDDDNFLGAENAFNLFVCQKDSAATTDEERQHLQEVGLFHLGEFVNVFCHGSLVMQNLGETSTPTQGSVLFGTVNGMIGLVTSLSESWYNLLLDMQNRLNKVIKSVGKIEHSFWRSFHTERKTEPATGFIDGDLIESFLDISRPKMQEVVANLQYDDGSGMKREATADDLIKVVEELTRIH

Turning to `CCCc1cc(C)[nH]c(=O)c1CNC(=O)c1cc(-c2ccc(N3CCN(C4CCN(Cc5ccc6c(c5)CN(N5CCC(=O)NC5=O)C6=O)CC4)CC3)nc2)cc2c1cnn2C(C)C` [GT-08422, 6-(6-(4-(1-((2-(2,4-dioxotetrahydropyrimidin-1(2H)-yl)-1-oxoisoindolin-5-yl)methyl)piperidin-4-yl)piperazin-1-yl)pyridin-3-yl)-1-isopropyl-N-((6-methyl-2-oxo-4-propyl-1,2-dihydropyridin-3-yl)methyl)-1H-indazole-4-carboxamide], in experiment [1], the “Degradation of substrate protein EZH2 (substrate protein remaining %)” value is “A (0%≤substrate protein remaining %≤80%)”. In addition, the inhibition at 0.01 µM in experiment [2] (10 nM, read-out: Inhibition Rate at 10 nM (%)) lay within 5 to 10%. The inhibition at 0.5 µM in experiment [2] (500 nM, read-out: Inhibition Rate at 500 nM (%)) lay in the range of 20 to 30%.

Consider `CN(c1nccnc1CNc1nc(Nc2ccc(N3CCN(CC4CCN(c5cccc6c5C(=O)N(N5CCC(=O)NC5=O)C6=O)CC4)CC3)cc2)ncc1C(F)(F)F)S(C)(=O)=O` [GT-07469, N-(3-(((2-((4-(4-((1-(2-(2,4-dioxotetrahydropyrimidin-1(2H)-yl)-1,3-dioxoisoindolin-4-yl)piperidin-4-yl)methyl)piperazin-1-yl)phenyl)amino)-5-(trifluoromethyl)pyrimidin-4-yl)amino)methyl)pyrazin-2-yl)-N-methylmethanesulfonamide], for which, in experiment [3], the inhibition at 0.01 µM lay in the range of 30 to 40% and the inhibition at 0.5 µM is 50 to 60%. Moreover, the “Degradation of substrate protein FAK (substrate protein remaining %)” value in experiment [4] is listed as “A (0%≤substrate protein remaining %≤80%)”. Further, in experiment [5], the inhibition at 0.01 µM lay within 0 to 5% and the inhibition at 0.5 µM was in the range of 80 to 100%.

For `CN(c1nccnc1CNc1nc(Nc2ccc(N3CCN(CC4CCN(c5ccc6c(c5)C(=O)N(N5CCC(=O)NC5=O)C6=O)CC4)CC3)cc2)ncc1C(F)(F)F)S(C)(=O)=O` [GT-07468, N-(3-(((2-((4-(4-((1-(2-(2,4-dioxotetrahydropyrimidin-1(2H)-yl)-1,3-dioxoisoindolin-5-yl)piperidin-4-yl)methyl)piperazin-1-yl)phenyl)amino)-5-(trifluoromethyl)pyrimidin-4-yl)amino)methyl)pyrazin-2-yl)-N-methylmethanesulfonamide], the results for the inhibition at 0.01 µM in experiment [6], in experiment [3] and in experiment [5] were 20 to 30%, 20 to 30% and 30 to 40%, respectively. For the same molecule, the inhibition at 0.5 µM in experiment [6] was 80 to 100%; in experiment [3] it was 50 to 60%; in experiment [5] it was 80 to 100%. Further, in experiment [4], the “Degradation of substrate protein FAK (substrate protein remaining %)” value is given as “A (0%≤substrate protein remaining %≤80%)”.

As for `CCCc1cc(C)[nH]c(=O)c1CNC(=O)c1cc(-c2ccc(N3CCN(Cc4ccc5c(c4)CN(N4CCC(=O)NC4=O)C5=O)CC3)nc2)cc2c1cnn2C(C)C` [GT-08418, 6-(6-(4-((2-(2,4-dioxotetrahydropyrimidin-1(2H)-yl)-1-oxoisoindolin-5-yl)methyl)piperazin-1-yl)pyridin-3-yl)-1-isopropyl-N-((6-methyl-2-oxo-4-propyl-1,2-dihydropyridin-3-yl)methyl)-1H-indazole-4-carboxamide], in experiment [1], the “Degradation of substrate protein EZH2 (substrate protein remaining %)” value is reported as “A (0%≤substrate protein remaining %≤80%)”.

Consider `CCCc1cc(C)[nH]c(=O)c1CNC(=O)c1cc(-c2ccc(N3CCC(N(C)Cc4ccc5c(c4)CN(N4CCC(=O)NC4=O)C5=O)CC3)nc2)cc2c1cnn2C(C)C` [GT-08420, 6-(6-(4-(((2-(2,4-dioxotetrahydropyrimidin-1(2H)-yl)-1-oxoisoindolin-5-yl)methyl)(methyl)amino)piperidin-1-yl)pyridin-3-yl)-1-isopropyl-N-((6-methyl-2-oxo-4-propyl-1,2-dihydropyridin-3-yl)methyl)-1H-indazole-4-carboxamide], for which, in experiment [1], the “Degradation of substrate protein EZH2 (substrate protein remaining %)” value is recorded as “A (0%≤substrate protein remaining %≤80%)”.

As for `CCCc1cc(C)[nH]c(=O)c1CNC(=O)c1cc(-c2ccc(N3CCN(Cc4ccc5c(c4)C(=O)N(N4CCC(=O)NC4=O)C5=O)CC3)nc2)cc2c1cnn2C(C)C` [GT-08419, 6-(6-(4-((2-(2,4-dioxotetrahydropyrimidin-1(2H)-yl)-1,3-dioxoisoindolin-5-yl)methyl)piperazin-1-yl)pyridin-3-yl)-1-isopropyl-N-((6-methyl-2-oxo-4-propyl-1,2-dihydropyridin-3-yl)methyl)-1H-indazole-4-carboxamide], in experiment [1], the “Degradation of substrate protein EZH2 (substrate protein remaining %)” value is “A (0%≤substrate protein remaining %≤80%)”.

Turning to `CCN(c1cc(-c2ccc(N3CCN(C4CCN(CC5CCN(c6cccc7c6C(=O)N(N6CCC(=O)NC6=O)C7=O)CC5)CC4)CC3)cc2)cc(C(=O)NCc2c(C)cc(C)[nH]c2=O)c1C)C1CCOCC1` [GT-08525, N-((4,6-dimethyl-2-oxo-1,2-dihydropyridin-3-yl)methyl)-4′-(4-(1-((1-(2-(2,4-dioxotetrahydropyrimidin-1(2H)-yl)-1,3-dioxoisoindolin-4-yl)piperidin-4-yl)methyl)piperidin-4-yl)piperazin-1-yl)-5-(ethyl(tetrahydro-2H-pyran-4-yl)amino)-4-methyl-[1,1′-biphenyl]-3-carboxamide], the “Degradation of substrate protein EZH2 (substrate protein remaining %)” value in experiment [1] was “A (0%≤substrate protein remaining %≤80%)”.

With `CNC(=O)c1ccccc1Nc1cc(Nc2ccc(N3CCC(N(C)Cc4ccc5c(c4)CN(N4CCC(=O)NC4=O)C5=O)CC3)cc2OC)ncc1C(F)(F)F` [GT-07647, 2-((2-((4-(4-(((2-(2,4-dioxotetrahydropyrimidin-1(2H)-yl)-1-oxoisoindolin-5-yl)methyl)(methyl)amino)piperidin-1-yl)-2-methoxyphenyl)amino)-5-(trifluoromethyl)pyridin-4-yl)amino)-N-methylbenzamide], the inhibition at 0.01 µM was 20 to 30% in experiment [6], 40 to 50% in experiment [3] and 40 to 50% in experiment [5]. Further, the inhibition at 0.5 µM is 40 to 60% in experiment [6], 70 to 80% in experiment [3] and 80 to 100% in experiment [5]. Further, in experiment [4], the “Degradation of substrate protein FAK (substrate protein remaining %)” value is “A (0%≤substrate protein remaining %≤80%)”.

Usually inhibition stands for the change of the read-out against control, counted positive when it falls.
